Earlier results on 1 substance are cited in US20170151174A1, “MAGNETOENZYMATIC CARRIER SYSTEM FOR IMAGING AND TARGETED DELIVERY AND RELEASE OF ACTIVE AGENTS” (priority 2014, published 2017).

In this series the test system is colon HT-29 cancer cells. Particulars: SMase activity of 0.5 U/ml.

On to sphingomyelinase [SMase], for which the cell death was 80%.
